Where a SMILES comes first, the peptide text is derived from it.
Experiments:
[1] = biological target: T1, Her3-Fc (Homo sapiens, UniProt P21860); assay: Spot phage ELISA, Her3-Fc; format: binding
T1 construct: purchased R&D 348-RB

[2] = biological target: T1, Her3-Fc; assay: SPR binding to Her3-Fc; details: Biacore S200, 25°C; Her3-Fc Avi-tag on chip SA; HBS-EP+ plus 1% DMSO; MCK
Description: (§1) All binding experiments were performed using a Biacore S200 instrument (GE Healthcare) at 25°C at a flow rate of 50 μL/min. The kinetics and affinity measurements were carried out using either single-cycle or multi-cycle kinetics (SCK or MCK), solvent corrected and referenced by subtracting the signal to the blank flow cell. Binding affinity and kinetic parameters (association and dissociation rate constants, and dissociation equilibrium constant) were calculated with the Biacore S200 Evaluation Software (version 1.1.1, Cytiva) using either a 1:1 binding model or a steady-state equilibrium model (according to the manufacturer’s instructions).
Her3-Fc Avi-tag (R&D) was captured at about 1200 and 3000 RU on Series S Sensor Chip SA (Cytiva). The SPR measurements were done in HBS-EP+ buffer (0.01 M HEPES pH 7.4, 0.15 M NaCl, 3 mM EDTA, 0.05% v/v Surfactant P20) plus 1% v/v DMSO.

[3] = system: Notch2Long; assay: Spot phage ELISA, Notch2Long; format: binding, human; details: Table 3, affinity maturation clones
[4] = system: Notch 2; assay: Phage competition ELISA on Notch 2; format: binding, human; details: N2L_EET03 peptide against N2L_EET31 displaying phage (Fig 5C)
Description: Subsequently, we selected another primary hit, N2L.EET31, for affinity maturation as outlined in Fig 5A with improved outcome. Despite displaying a weak ELISA signal, N2L.EET31 was identified as the most abundant sequence by NGS analysis (56.6% in round 4). […] Due to these observations, N2L.EET31 was selected as another candidate for affinity maturation. An NNK-walking experiment (described in the methods section) provided valuable information on the functional importance of individual loop residues. […] These residues are either crucial for binding or play a critical role in overall peptide folding. […] Based on this information, we designed hard randomization libraries for Loop 2 and Loop 3_4 as part of the second generation of affinity maturation.

[5] = biological target: T2, Notch2Long (Notch2 EGF6-EGF12) (Homo sapiens, UniProt Q04721); assay: SPR binding of synthetic DCPs to Notch2Long; details: Biacore S200, 25°C, 50 μL/min; synthetic in vitro folded peptide, 3-fold dilution from 100 μM; biotinylated N2L on chip SA; steady state fitting; at least three independent experiments; n/d = no binding
T2 construct: Biotinylated N2L protein (D219–E418, made in-house); His tag (cleaved yes); made in house; host or cells: CHO
T2 sequence (Q04721 219-418): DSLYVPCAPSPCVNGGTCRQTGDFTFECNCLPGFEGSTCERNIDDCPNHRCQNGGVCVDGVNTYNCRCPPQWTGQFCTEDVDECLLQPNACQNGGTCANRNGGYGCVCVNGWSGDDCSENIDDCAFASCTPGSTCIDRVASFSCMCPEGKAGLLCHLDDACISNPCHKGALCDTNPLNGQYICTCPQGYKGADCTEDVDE
Description: as §1
Biotinylated N2L protein (D219–E418, made in-house) and NRR protein (A1423–Q1677, made in-house) were captured at around 500, 1000 and 1500 RU on Sensor Chip SA (Cytiva).

T1 sequence (P21860 20-643 limits assumed): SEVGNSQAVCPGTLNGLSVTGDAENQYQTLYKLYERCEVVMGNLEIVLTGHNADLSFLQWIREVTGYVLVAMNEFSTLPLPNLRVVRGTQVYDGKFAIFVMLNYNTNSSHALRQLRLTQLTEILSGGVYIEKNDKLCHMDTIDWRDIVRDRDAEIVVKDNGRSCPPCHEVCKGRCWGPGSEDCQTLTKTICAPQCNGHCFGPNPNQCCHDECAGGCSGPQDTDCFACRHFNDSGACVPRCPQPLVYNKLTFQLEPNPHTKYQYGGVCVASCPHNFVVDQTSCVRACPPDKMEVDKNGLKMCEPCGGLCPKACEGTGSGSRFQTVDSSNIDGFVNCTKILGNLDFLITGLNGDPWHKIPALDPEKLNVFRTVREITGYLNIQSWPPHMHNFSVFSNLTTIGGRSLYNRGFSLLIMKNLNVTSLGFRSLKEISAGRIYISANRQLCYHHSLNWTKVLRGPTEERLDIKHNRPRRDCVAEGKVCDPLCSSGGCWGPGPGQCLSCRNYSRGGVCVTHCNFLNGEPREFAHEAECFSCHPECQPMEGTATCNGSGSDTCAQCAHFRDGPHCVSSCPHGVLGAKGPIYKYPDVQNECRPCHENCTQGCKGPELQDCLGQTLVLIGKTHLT

SMILES	S/N ([1]; ratio of signal for target protein over BSA background)	ELISA ([1]; spot phage ELISA signal, DCP displayed on M13 p8, L1 2)	Kd [2]	s/n ratio ([3]; signal over BSA background)	ELISA ([3]; spot phage ELISA signal, display (p8 or p3) not given per clone)	competition in phage competition ELISA [4]	Kd [5]
CC(C)C[C@@H]1NC(=O)[C@H](CCCNC(=N)N)NC(=O)[C@H](CCC(N)=O)NC(=O)[C@@H]2CSSC[C@@H](C(=O)N[C@@H](CCC(=O)O)C(=O)N[C@@H](CCC(=O)O)C(=O)O)NC(=O)[C@H](CCCCN)NC(=O)[C@@H]3CSSC[C@H](NC(=O)[C@H](CCC(=O)O)NC(=O)[C@H](CCCCN)NC(=O)[C@H](CO)NC(=O)[C@H]([C@@H](C)O)NC(=O)[C@H]([C@@H](C)O)NC(=O)[C@@H](NC(=O)[C@H](CO)NC(=O)[C@@H](N)C(C)C)CSSC[C@H](NC(=O)[C@H](CCC(N)=O)NC(=O)[C@H](CCC(=O)O)NC(=O)CNC(=O)[C@H](Cc4c[nH]c5ccccc45)NC(=O)[C@H](CO)NC(=O)[C@H]([C@@H](C)O)NC(=O)[C@H](CC(N)=O)NC(=O)[C@H](Cc4c[nH]cn4)NC1=O)C(=O)N[C@@H](C(C)C)C(=O)N[C@@H]([C@@H](C)O)C(=O)N[C@@H](CCCCN)C(=O)N[C@@H](Cc1ccccc1)C(=O)N3)C(=O)N[C@@H](Cc1c[nH]c3ccccc13)C(=O)N[C@@H](CO)C(=O)N[C@@H](C(C)C)C(=O)N2 [Her3-Fc_ChTx1]	22.6	1.74	> 10 µM				
CC[C@H](C)[C@@H]1NC(=O)[C@@H](NC(=O)CN)CSSC[C@@H]2NC(=O)CNC(=O)[C@H](C)NC(=O)[C@H](CC(C)C)NC(=O)[C@@H]3CSSC[C@@H](C(=O)NCC(=O)O)NC(=O)[C@H](CCC(N)=O)NC(=O)[C@H]([C@@H](C)CC)NC(=O)[C@H](Cc4c[nH]c5ccccc45)NC(=O)[C@H](C(C)C)NC(=O)[C@H](CCC(=O)O)NC(=O)[C@H](CSSC[C@H](NC(=O)[C@H](Cc4c[nH]c5ccccc45)NC(=O)[C@H](CC(C)C)NC(=O)[C@H](Cc4c[nH]cn4)NC(=O)[C@H](CO)NC(=O)[C@H](CCCCN)NC1=O)C(=O)N[C@@H](CCCCN)C(=O)N[C@@H](CCC(N)=O)C(=O)N[C@@H](CC(=O)O)C(=O)N[C@@H](CO)C(=O)N[C@@H](CC(=O)O)C(=O)N3)NC(=O)[C@H](C(C)C)NC2=O [N2L.EET31] (HELM PEPTIDE1{G.C.I.K.S.H.L.W.C.K.Q.D.S.D.C.L.A.G.C.V.C.E.V.W.I.Q.C.G}$PEPTIDE1,PEPTIDE1,2:R3-19:R3|PEPTIDE1,PEPTIDE1,9:R3-21:R3|PEPTIDE1,PEPTIDE1,15:R3-27:R3$$$V2.0; N-terminus and C-terminus assumed)				0.4	0.1	exhibited competition with N2L.EET03	> 100 µM
